Tested on: patients with dry eye disorder and other eye symptoms
Assay: Clinical usage of deacidified coconut oil for treating eye diseases or disorders (three patients)
Assay type: in vivo, human
Conditions: before deacidified coconut oil
Protocol: The deacidified coconut oil was initially developed for treating the dry eye disorder. As the research continued, it was determined that the deacidified coconut oil can also be used to treat asthenopia, impaired vision, blurred vision, photophobia, astigmatism, and blepharitis. As shown in the following cases, the deacidified coconut oil was successfully administered to three patients with positive outcomes.
[…] […] […] […] […] In 2013-2014, the patient developed additional eye symptoms including astigmatism, blepharitis, anxiety and body weight loss (e.g., about 10 kilograms). In 2015, the patient used the deacidified coconut oil as described herein as eye drops, placed the thermal pad as described herein on the eyes, and took herb composition as described herein. […] In 2019, the symptoms of dry eye disorder including pain, dryness, redness, foreign matter sensation and insomnia were gone. In addition, symptoms such as repetitive visual fatigue, decreased vision, blurred vision, photophobia, sensitivity to wind, astigmatism, and eyelid inflammation disappeared. The patient's overall vision condition improved relative to that in 2015. The eyeglass prescription for both eyes decreased by 1.50-2.00.
The second patient, person. […]

Substance: Recombinant Bovine Basic Fibroblast Growth Factor Eye Drops: Recombinant Bovine Basic Fibroblast Growth Factor Eye Drops
- effect of earlier treatment, second patient: No significant improvement was observed

— patent US10933111B2, “Treating dry eye disorders” (Boston Biotechnology US CORP, priority 2019, dated 2021)
